Source: PubChem BioAssay AID1963853 (Molecular Pharmacology Branch, DTP, NCI, 2024)
Several values for one entry are separate records, joined by “and”; a condition that tells them apart may be missing. Identical values can stand only once.

Test system: 266295-075-R-J1-PDC spheroid viability
Assay: Anticancer human tumor 266295-075-R-J1-PDC patient-derived head and neck squamous carcinoma cell line growth inhibition [POLQ]
Conditions: spheroids with HUVEC and MSC; for viability, T/C: stronger effect = lower value
Description: Multicellular complex tumor spheroid response to Polymerase (POL) inhibitors (novobiocin, ART-558, RP6685) in combination with a variety of drugs and investigational agents in selected tumor cell lines
The POL inhibitors (novobiocin, ART-558, and RP6685) were evaluated both individually and in combination with standard of care and investigational anticancer small molecules within a complex spheroid model of solid tumors. . Complex spheroids include a stromal component modeled by human endothelial cells (HUVEC) and fibroblasts modeled by human mesenchymal stem cells (MSCs). The concentration ranges selected for each drug and investigational agent were based upon clinically achievable concentrations if the clinical Cmax of the agent was known.
Compounds. The drugs and investigational agents: novobiocin (NSC847541), ART-558 (NSC835418), RP-6685 (NSC848927), peposertib (NSC802822), ceralasertib (NSC780249), elimusertib (NSC800525), camonsertib (NSC841442), AZD-1390 (NSC803789), olaparib (NSC753686), talazoparib (NSC767125), rucaparib (NSC756644), sotorasib (NSC818433), MRTX-1133 (NSC836407), SN-38 (NSC673596), topotecan (NSC609699), epotoside (NSC141540), doxorubicin (NSC123127), gemcitabine (NSC613327), 5-fluorouracil (NSC19893), paclitaxel (NSC125973), vemurafenib (NSC761431), MSA-2 (NSC828583), SN-011 (NSC837082), adavosertib (NSC754352), prexasertib (NSC758257), carboplatin (NSC241240) and oxaliplatin (NSC266046), were obtained from the National Cancer Institute (NCI) Developmental Therapeutics Program Chemical Repository (21). The FDA-approved anticancer drug set is available from the Developmental Therapeutics Program at https://dtp.cancer.gov/organization/dscb/obtaining/. […] The stock solutions were prepared in dimethyl sulfoxide (DMSO, Sigma-Aldrich, St. Louis, MO, cat. D2650), except for the platinum compounds which were prepared in saline (Quality Biological, Gaithersburg, MD, cat. 114-055-101), at 800-fold the tested concentration and stored at -70 degrees C prior to their use. All drugs and investigational agents were tested over a range starting from a high concentration at or near the clinical Cmax and decreasing in half-log increments. If the clinical Cmax for an agent had not been determined, the highest concentration tested was 10 microM, except for SN-38, which was tested at a high concentration of 1 microM.
Cell Culture. All cells were maintained in an incubator at 37 degrees C and 5% CO2 with 95% humidity. The PDC lines were cultured according to standard operating procedures established by the NCI PDMR (https://pdmr.cancer.gov). Table 3 of the manuscript, lists the cell lines along with the number of the three cell types plated to form the mct-spheroids and media for tumor cell growth. After thawing, all PDC lines, except 997537-175-T-J1-PDC and 415267-285-R-J2-PDC, were cultured in Matrigel-coated flasks prepared with a working solution of 1X Ham's F-12 nutrient mix, without supplementation (Thermo Fisher Scientific, cat. 11765054), 100 U/mL penicillin-streptomycin (Thermo Fisher Scientific, cat. 15140122), and 2.5% Matrigel (Corning Inc., Corning, NY, cat. 354248) for the first three passages. The two PDC lines 997537-175-T-J1-PDC and 415267-285-R-J2-PDC were cultured on uncoated flasks. The 857933-349-R-J2-PDC line was cultured in 6C/Colon 1B media containing advanced DMEM/F-12 (Thermo Fisher Scientific, cat. 12634028), 10 mM HEPES (Thermo Fisher Scientific, cat. 15630080), 1X GlutaMAX supplement (Thermo Fisher Scientific, cat. 35050061), 0.1 mg/mL primocin (InvivoGen, San Diego, CA, cat. ant-pm-2), 10% defined fetal bovine serum, heat inactivated (HyClone Laboratories Inc., Logan, UT, cat. SH30070.03HI), 50% L-WRN conditioned media (ATCC, cat. CRL-3276), 1.25 mM N-Acetyl-L-cysteine (Sigma-Aldrich, cat. A9165), 10 mM nicotinamide (Sigma-Aldrich, cat. N0636), 1X B-27 supplement (Thermo Fisher Scientific, cat. 17504044), 1X N-2 supplement (Thermo Fisher Scientific, cat. […]

[1] = compound alone, run of 10/31/2023
[2] = compound alone, run of 11/06/2023
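Also: spheroids exposed to compounds for seven days before readout.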

Q: `CNCc1ccc(-c2[nH]c3cc(F)cc4c3c2CCNC4=O)cc1` was tested. Which viability, T/C (compound 0.0316 µM) did it give?
A: 105% and 77.3% and 89.9%

Q: What about the viability, T/C (compound 0.1 µM) of the same molecule?
A: 102% and 92.1% and 96.7%

Q: What about the viability, T/C (compound 0.316 µM) of the same molecule?
A: 107% and 102% and 87.6%

Q: And the viability, T/C (compound 1 µM)?
A: 91.4% and 94% and 99.2%

Q: And the viability, T/C (compound 3.16 µM)?
A: 110% and 105% and 106%

Q: And the viability, T/C (compound 10 µM)?
A: 91.8% and 123% and 105%

Q: And the IC50 (curve of compound)?
A: > 10 µM

Q: `COC1C(OC(N)=O)C(O)C(Oc2ccc3c(O)c(NC(=O)c4ccc(O)c(CC=C(C)C)c4)c(=O)oc3c2C)OC1(C)C` (stereo unspecified) was tested. Which viability, T/C (compound 0.0316 µM) did it give?
A: 101% [middle of 13 runs]

Q: And the viability, T/C (compound 1 µM)?
A: 101% [middle of 13 runs]

Q: And the IC50 [1]?
A: > 10 µM

Q: For `COc1cc(C2c3cc4c(cc3C(OC3OC5COC(C)OC5C(O)C3O)C3COC(=O)C23)OCO4)cc(OC)c1O` (stereo unspecified), which viability, T/C (compound 0.0316 µM) is on record?
A: 84.2% and 123% and 88.1%

Q: What about the viability, T/C (compound 0.1 µM) of the same molecule?
A: 80.5% and 94.5% and 116%

Q: What about the viability, T/C (compound 0.316 µM) of the same molecule?
A: 92.3% and 110% and 112%

Q: What about the viability, T/C (compound 1 µM) of the same molecule?
A: 77.7% and 88% and 98.4%

Q: And the viability, T/C (compound 3.16 µM)?
A: 79.7% and 84.9% and 93.1%

Q: And the viability, T/C (compound 10 µM)?
A: 72.6% and 84.4% and 82.6%

Q: What about the IC50 (curve of compound) of the same molecule?
A: > 10 µM

Q: How did the viability, T/C (compound 0.0316 µM) turn out when `COc1cc2cc(C(=O)CCC(=O)O)sc2cc1OC` was run?
A: 96.8% and 81.4% and 99%

Q: What about the viability, T/C (compound 0.1 µM) of the same molecule?
A: 105% and 89.9% and 92.6%

Q: What about the viability, T/C (compound 0.316 µM) of the same molecule?
A: 108% and 91.4% and 97.7%

Q: What about the viability, T/C (compound 1 µM) of the same molecule?
A: 101% (2×) and 99.7%

Q: And the viability, T/C (compound 3.16 µM)?
A: 87.9% and 109% and 115%

Q: And the viability, T/C (compound 10 µM)?
A: 93.1% and 105% and 85.8%

Q: What about the IC50 (curve of compound) of the same molecule?
A: > 10 µM

Q: `COc1ccc([C@@H](O)c2cc(-c3ncnc4cc(N5CCOCC5)ccc34)c(F)cc2Cl)nn1` was tested. Which viability, T/C (compound 0.0316 µM) did it give?
A: 96.7% and 96.6% and 100%

Q: What about the viability, T/C (compound 0.1 µM) of the same molecule?
A: 89.4% and 101% and 98%

Q: What about the viability, T/C (compound 0.316 µM) of the same molecule?
A: 84.6% and 83% and 84%

Q: And the viability, T/C (compound 1 µM)?
A: 60.7% and 73.9% and 67.8%

Q: What about the viability, T/C (compound 3.16 µM) of the same molecule?
A: 44.7% and 71.7% and 51.1%

Q: What about the viability, T/C (compound 10 µM) of the same molecule?
A: 39.7% and 44.2% and 39.9%

Q: What about the IC50 (curve of compound) of the same molecule?
A: 2.17 µM and 8.03 µM and 3.39 µM

Q: With `COc1cccc(OCCCN)c1-c1cc(Nc2cnc(C#N)cn2)n[nH]1` as the molecule, how does the viability, T/C (compound 0.00316 µM) read?
A: 109% and 97% and 97.8%

Q: And the viability, T/C (compound 0.01 µM)?
A: 88.7% and 92.5% and 82.9%

Q: And the viability, T/C (compound 0.0316 µM)?
A: 70.5% and 72.5% and 94.9%

Q: What about the viability, T/C (compound 0.1 µM) of the same molecule?
A: 77.6% and 81.7% and 73.8%

Q: And the viability, T/C (compound 0.316 µM)?
A: 73.2% and 70% and 74.8%

Q: And the viability, T/C (compound 1 µM)?
A: 85% and 73.7% and 71.7%

Q: And the IC50 (curve of compound)?
A: > 1 µM

Q: What does the source list for `COc1cccc2c1C(=O)c1c(O)c3c(c(O)c1C2=O)CC(O)(C(=O)CO)CC3OC1CC(N)C(O)C(C)O1` (stereo unspecified)?
A: viability, T/C (compound 0.0316 µM): 75.4% and 85.8% and 98.2%; viability, T/C (compound 0.1 µM): 77% and 122% and 101%; viability, T/C (compound 0.316 µM): 67.3% and 74% and 72.5%; viability, T/C (compound 1 µM): 55.9% and 77.4% and 82.8%; viability, T/C (compound 3.16 µM): 47.4% and 71.8% and 63.5%; viability, T/C (compound 10 µM): 1.55% and 2.37% and 2.7%; IC50 (curve of compound): 2 µM and 4.15 µM and 3.85 µM

Q: What does the source list for `Cc1cccc(N(C)C(=O)C2C(O)CCN2c2nc(C)cc(C(F)(F)F)c2C#N)c1` (stereo unspecified)?
A: IC50 [1]: > 10 µM; IC50 [2]: > 10 µM

Q: With `Cn1ncnc1[C@H]1c2n[nH]c(=O)c3cc(F)cc(c23)N[C@@H]1c1ccc(F)cc1` as the molecule, how does the viability, T/C (compound 0.000316 µM) read?
A: 103% and 112% and 99.9%

Q: What about the viability, T/C (compound 0.001 µM) of the same molecule?
A: 100% and 92.9% and 88.8%

Q: And the viability, T/C (compound 0.00316 µM)?
A: 87.1% and 103% and 107%

Q: And the viability, T/C (compound 0.01 µM)?
A: 102% (2×) and 92.9%

Q: What about the viability, T/C (compound 0.0316 µM) of the same molecule?
A: 104% and 112% and 89%

Q: What about the viability, T/C (compound 0.1 µM) of the same molecule?
A: 118% and 101% and 105%

Q: What about the IC50 (curve of compound) of the same molecule?
A: > 0.1 µM

Q: Which results are given for `Nc1ccc(C#CCN(C(=O)Cc2ncc(C(F)(F)F)cc2C(F)(F)F)c2ccc(F)cc2)nn1`?
A: viability, T/C (compound 0.316 µM): 102% [middle of 13 runs]; viability, T/C (compound 3.16 µM): 95.5% [middle of 13 runs]; viability, T/C (compound 10 µM): 96.3% [middle of 13 runs]; IC50 [2]: > 10 µM

Q: With `Nc1ccn(C2OC(CO)C(O)C2(F)F)c(=O)n1` (stereo unspecified) as the molecule, how does the viability, T/C (compound 0.0316 µM) read?
A: 85.5% and 98.5% and 105%

Q: What about the viability, T/C (compound 0.1 µM) of the same molecule?
A: 81.7% and 117% and 83.4%

Q: What about the viability, T/C (compound 0.316 µM) of the same molecule?
A: 81.2% and 85.9% and 88.4%

Q: And the viability, T/C (compound 1 µM)?
A: 64.9% and 81.8% and 83.7%

Q: And the viability, T/C (compound 3.16 µM)?
A: 84.6% and 85.2% and 85.7%

Q: And the viability, T/C (compound 10 µM)?
A: 75.2% and 82.7% and 85.4%

Q: And the IC50 (curve of compound)?
A: > 10 µM

Q: For `O=C(Nc1ccc(O)c(NS(=O)(=O)c2ccc(F)cc2)c1)c1ccc(-c2ccccc2)cc1`, which viability, T/C (compound 0.0316 µM) is on record?
A: 119% and 92.8% and 88.2%

Q: And the viability, T/C (compound 0.1 µM)?
A: 112% and 97.5% and 96.2%

Q: And the viability, T/C (compound 0.316 µM)?
A: 102% and 96.6% and 99.1%

Q: And the viability, T/C (compound 1 µM)?
A: 123% and 103% and 118%

Q: And the viability, T/C (compound 3.16 µM)?
A: 153% and 112% and 122%

Q: What about the viability, T/C (compound 10 µM) of the same molecule?
A: 114% and 96.1% and 113%

Q: What about the IC50 (curve of compound) of the same molecule?
A: > 10 µM

Q: How did the viability, T/C (compound 0.0316 µM) turn out when `O=C(c1cc(Cc2n[nH]c(=O)c3ccccc23)ccc1F)N1CCN(C(=O)C2CC2)CC1` was run?
A: 114% and 79.6% and 101%

Q: What about the viability, T/C (compound 0.1 µM) of the same molecule?
A: 84% and 87.8% and 94.3%

Q: What about the viability, T/C (compound 0.316 µM) of the same molecule?
A: 94.3% and 90.3% and 90.9%

Q: What about the viability, T/C (compound 1 µM) of the same molecule?
A: 91.9% and 99.1% and 99.3%

Q: And the viability, T/C (compound 3.16 µM)?
A: 112% and 105% and 107%

Q: And the viability, T/C (compound 10 µM)?
A: 85.3% and 86.9% and 82.6%

Q: And the IC50 (curve of compound)?
A: > 10 µM

Q: Which results are given for `O=c1[nH]cc(F)c(=O)[nH]1`?
A: viability, T/C (compound 0.0316 µM): 98.7% and 96% and 115%; viability, T/C (compound 0.1 µM): 89.9% and 91.2% and 95.8%; viability, T/C (compound 0.316 µM): 86.7% and 97.9% and 89.4%; viability, T/C (compound 1 µM): 89.8% and 116% and 102%; viability, T/C (compound 3.16 µM): 80.7% and 102% and 94.3%; viability, T/C (compound 10 µM): 89.4% and 89% and 84.3%; IC50 (curve of compound): > 10 µM
